Measured values taken from patent US4012284A (Societa' Farmaceutici Italia, S.p.A., priority 1962, dated 1977).

Assays:
[1] = tested on: tumors, ascitic and solid; assay: Antitumor activity on standard experimental animals (summary statements); type: in vivo, mouse and rat
From the text: (§1) At least 20 animals per lot were used.

Ehrlich adenocarcinoma = Ehrlich adenocarcinoma (solid) in mice (Table VI); type: in vivo, mouse; settings: for Body weight change, not [net]: controls +2.27; for Body weight change, gross: controls +4.85; for % Inhibition (tumor growth) / Average tumor weight: eighth day; for Average tumor weight: controls 2.583
From the text: as §1
(§2) The checking of the activity on solid tumors has been carried out with Ehrlich adenocarcinoma and sarcoma 180 in the mouse and with Walker carcinosarcoma and the Oberling-Guerin-Guerin myeloma in the rat.
Mice grafted with a fragment of tumor subcutaneously for 6 days starting from the day after the transplantation have been treated with a solution of the antibiotic. At the eighth day of experiment all the animals were killed and the tumor was removed and weighed.

Sarcoma 180 = Sarcoma 180 (solid) in mice (Table VII); type: in vivo, mouse; settings: 2 mg/kg/day intraperitoneally, 7 days
Description: as §1, §2
Mice grafted with a fragment of neoplastic tissue have been treated intraperitoneally for seven consecutive days, starting from the day following the tumor implantation. The antibiotic was administered in solution at a dose of 2 mg/kg/day. At the tenth day of experiment, all the mice were killed and the tumors and spleens were removed.

Acute toxicity, rat = settings: in vivo
From the text: (§3) In the following Table the acute toxicity of Daunomycin as LD50 is reported.

[2] = tested on: Ehrlich ascitic carcinoma; assay: Ehrlich ascitic carcinoma, second experiment, intravenous (Table IV); type: in vivo, mouse; settings: 1.75 mg/kg/day intravenously, 4 days
Description: as §1
(§4) Activity tests were carried out on mice, bearing Ehrlich ascitic carcinoma and on rats, which are grafted with hepatoma AH 130 and Oberling-Guerin-Guerin myeloma.
(§5) Mice are grafted intraporitoneally with a suspension of tumor cells and treated with solutions of different concentrations of the antibiotic for five consecutive days starting from the day following the tumor implantation.
The result has been confirmed by a successive experiment in which the antibiotic has been administered at the dose of 1.75 mg/kg intravenously for 4 days (Table IV).

Walker carcinosarcoma [3] = assay: Walker carcinosarcoma in rats (Table VIII); type: in vivo, rat; settings: for % Inhibition (tumor growth) / Average tumor weight / Mortality / Body weight change, not [net] / Body weight change, gross: 8 times within 10 days; for % Inhibition (tumor growth) / Average tumor weight: 11th day; for Average tumor weight: controls 15.940; for Mortality: controls 1/10; for Body weight change, not [net]: controls +6.96; for Body weight change, gross: controls +22.9
From the text: as §1, §2
The rats grafted with this tumor have been treated intravenously 8 times within 10 days; at the 11th day of experiment, the surviving animals were killed and the tumors removed.

[4] = tested on: Ascitic myeloma (Oberling-Guerin-Guerin myeloma); assay: Ascitic myeloma (Oberling-Guerin-Guerin) in Wistar rats (Table V); type: in vivo, rat; settings: for Average survival time: controls 10.7
Description: as §1, §4
This experiment was carried out on Wister rats, which have been grafted with a suspension of tumor cells and then have been treated intraperitoneously with a solution of the antibiotic according to the following scheme: one group three times on alternate days with a dose equal to 2 mg/kg/day; another group for 5 consecutive days with a dose of 1 mg/kg/day.

Hepatoma AH 130 = assay: Ascitic hepatoma AH 130 in Wistar rats; type: in vivo, Wistar rat; settings: 2 and 1 mg/kg/day intraperitoneally, 5 days, after 50 days of the experiment
Description: as §1, §4
Wistar rats, grafted with accitic hepatoma have been treated intraperitoneously for 5 consecutive days with antibiotic doses of 2 and 1 mg/kg/day.

[5] = tested on: Oberling-Guerin-Guerin myeloma; assay: Oberling-Guerin-Guerin myeloma (solid) in rats, successive experiment (Table XI); type: in vivo, rat
From the text: as §1
The checking of the activity on solid tumors has been carried out with Ehrlich adenocarcinoma and sarcoma 180 in the mouse and with Walker carcinosarcoma and the Oberling-Guerin-Guerin myeloma in the rat. […]

Solubility = type: physicochemical
[6] = tested on: Ehrlich ascitic carcinoma; assay: Ehrlich ascitic carcinoma in mice (Table III); type: in vivo, mouse; settings: for Body weight increase / Average survival time: 5 days; for Average survival time: controls 16.4
Description: as §1, §4, §5

Acute toxicity, mouse = settings: in vivo
From the text: as §3

Walker carcinosarcoma [7] = assay: Walker carcinosarcoma in rats, second experiment (Table IX); type: in vivo, rat; settings: 3 mg/kg/day intravenously
Description: as §1, §2
A second experiment with rats, bearing the same tumor, has been carried out to investigate the effect of the antibiotic on the animals' survival besides the antitumor activity. In this case the rats were treated intravenously 8 times within 12 days at the dose of 3 mg/kg/day.

[8] = tested on: Oberling-Guerin-Guerin myeloma; assay: Oberling-Guerin-Guerin myeloma (solid) in Long-Evans rats (Table X); settings: 10 days; for % Inhibition (tumor growth) / Average tumor weight: 13th day; for Average tumor weight: controls 17.23; for Mortality: controls 3/12; for Body weight change, not [net]: controls +28.-; for Body weight change, gross: controls +45.2
[9] = 2.5 mg/kg/day intravenously, 7 times within 14 days

## COc1cccc2c1C(=O)c1c(O)c3c(c(O)c1C2=O)C[C@@](O)(C(C)=O)C[C@@H]3O[C@H]1C[C@H](N)[C@H](O)[C@H](C)O1 [F.I. 1762]
[1]; activity differs according to administration route and dose
  effect in solid tumors: Good inhibiting effect
[1]; immediate contact of the antibiotic and the neoplastic cells
  effect on the tumor growth in ascitic form: marked inhibitory effect on the tumor growth in ascitic form
[1]; intravenous, doses between 2 and 3 mg/kg/body weight day
  results by route and dose: best results
[1]; standard experimental animals
  usefulness as antitumoral: particularly useful as antitumoral
Ehrlich adenocarcinoma; 3 mg/kg/day
  Body weight change, not [net]: +1.59 grams
  Body weight change, gross: +3.84 grams
  % Inhibition (tumor growth): 12%
  Average tumor weight: 2.253 grams
Ehrlich adenocarcinoma; 6 mg/kg/day
  Body weight change, not [net]: +1.07 grams
  Body weight change, gross: +2.59 grams
  % Inhibition (tumor growth): 41.1%
  Average tumor weight: 1.522 grams
Sarcoma 180
  spleen: marked shrinkage of the spleen
  tumor growth: marked inhibition of tumor growth
Sarcoma 180; controls 0/10
  Mortality: 0/10
Sarcoma 180; controls +2.83
  Body weight change, not [net]: -3.01 grams
Sarcoma 180; controls +5.05
  Body weight change, gross: -1.72 grams
Sarcoma 180; tenth day
  % Inhibition, spleen: 62.7%
  % Inhibition, tumor: 42.1%
Sarcoma 180; tenth day, controls 2.225
  Average weight, tumor: 1.289 grams
Sarcoma 180; tenth day, controls 251
  Average weight, spleen: 93.5 milligrams
Acute toxicity, rat; intravenous
  LD50: 13 to 15 mg/kg
Acute toxicity, rat; ip, intraperitoneal
  LD50: 8 mg/kg
[2]; 7 days after implantation, controls +6.3
  Body weight increase: +0.1 grams
[2]; 12 days after implantation, controls +14.2
  Body weight increase: +2.2 grams
[2]; controls 12.4
  Average survival time: 35.1 days
Walker carcinosarcoma [3]; 1 mg/kg/day intravenously
  % Inhibition (tumor growth): 42.1%
  Average tumor weight: 9.443 grams
  Mortality: 1/10
  Body weight change, not [net]: +0.76 grams
  Body weight change, gross: +10.2 grams
Walker carcinosarcoma [3]; 2 mg/kg/day intravenously
  tolerance: tolerated
  % Inhibition (tumor growth): 66.1%
  Average tumor weight: 5.404 grams
  Mortality: 1/10
  Body weight change, not [net]: +22.25 grams
  Body weight change, gross: +27.9 grams
Walker carcinosarcoma [3]; especially with 2 mg/kg/day intravenously
  effect on this type of tumor: marked inhibitory effect
[4]; 1 mg/kg/day intraperitoneally, 5 consecutive days
  Average survival time: 16.7 days
[4]; 2 mg/kg/day intraperitoneally, three times on alternate days
  Average survival time: 17.7 days
[4]; 2 mg/kg/day x 3 or 1 mg/kg/day x 5, intraperitoneally
  diffusion of the tumor: a delay in the diffusion of the tumor has been observed
Hepatoma AH 130
  trace of tumor: In none of them was any trace of tumor noticed
Hepatoma AH 130; controls average survival 11.8 days
  survival of treated rats: all the treated rats were still alive after 50 days of the experiment
[5]; [9]
  % Inhibition, spleen: 54.1%
  % Inhibition, tumor: 69.5%
[5]; 2.5 mg/kg/day intravenously, 7 times within 14 days, controls 1.303
  Average weight, spleen: 0.598 grams
[5]; 2.5 mg/kg/day intravenously, 7 times within 14 days, controls 5/15
  Mortality: 5/15
[5]; 2.5 mg/kg/day intravenously, 7 times within 14 days, controls 13.486
  Average weight, tumor: 4.114 grams
[5]; 2.5 mg/kg/day intravenously, 7 times within 14 days, controls +40.22
  Body weight change, not [net]: +16.79 grams
[5]; 2.5 mg/kg/day intravenously, 7 times within 14 days, controls +53.7
  Body weight change, gross: +20.9 grams
[5]; Tables X and XI, 2 mg and 2.5 mg/kg/day intravenously
  tolerance of the antibiotic: good tolerance
[5]; Tables X and XI, 2 mg and 2.5 mg/kg/day intravenously produced the best results
  activity against this kind of tumor: active also against this kind of tumor
Solubility; in alcohols, ketones, halogenated hydrocarbons, aqueous solutions of organic and inorganic acids
  solubility: soluble
Solubility; in ethers and saturated hydrocarbons
  solubility: practically insoluble
Solubility; water
  solubility in water: slightly soluble
[6]; 0.75 mg/kg/day, 7 days after implantation, controls +9.6
  Body weight increase: +2.9 grams
[6]; 0.75 mg/kg/day, 14 days after implantation, controls +21.4
  Body weight increase: +5.3 grams
[6]; 1.25 mg/kg/day, 7 days after implantation, controls +9.6
  Body weight increase: +1.5 grams
[6]; 1.25 mg/kg/day, 14 days after implantation, controls +21.4
  Body weight increase: +3.1 grams
[6]; 1.25 mg/kg/day, 21 days after implantation
  Body weight increase: +4.4 grams
[6]; 1.25 mg/kg/day
  Average survival time: 32.0 days
[6]; 1.75 mg/kg/day, 7 days after implantation, controls +9.6
  Body weight increase: +1.3 grams
[6]; 1.75 mg/kg/day, 14 days after implantation, controls +21.4
  Body weight increase: +2.4 grams
[6]; 1.75 mg/kg/day, 21 days after implantation
  Body weight increase: +4.7 grams
[6]; 1.75 mg/kg/day
  Average survival time: 36.4 days
[6]; 1.75 and 1.25 mg/kg/day
  average survival rate of the treated animals: increased considerably
  effect on the ascitic tumor growth: remarkable inhibitory effect on the ascitic tumor growth
Acute toxicity, mouse; intravenous
  LD50: 20 mg/kg
Acute toxicity, mouse; ip, intraperitoneal
  LD50: 5 mg/kg
Walker carcinosarcoma [7]; 8 times within 12 days
  increase of average survival: 50.8%
Walker carcinosarcoma [7]; 8 times within 12 days, 9th day
  Tumor growth inhibition: 71.0 % of the control
Walker carcinosarcoma [7]; 8 times within 12 days, 29th day
  Tumor growth inhibition: 31.6 % of the control
Walker carcinosarcoma [7]; 8 times within 12 days, controls 16.9
  Average survival time: 25.5 days
Walker carcinosarcoma [7]; 20 days after the injections were stopped
  tumor growth inhibition (in words): still continues in a remarkable degree
Walker carcinosarcoma [7]; during the treatment
  tumor growth inhibition (in words): considerable during the treatment
[8]; 2 mg/kg/day intravenously
  % Inhibition (tumor growth): 34.5%
  Average tumor weight: 11.30 grams
  Mortality: 0/12
  Body weight change, not [net]: +20 grams
  Body weight change, gross: +33.3 grams
[8]; 4 mg/kg/day intravenously
  % Inhibition (tumor growth): 82.8%
  Average tumor weight: 2.98 grams
  Mortality: 4/12
  Body weight change, not [net]: +0.8 grams
  Body weight change, gross: +3.8 grams
